# Laboratory results reported in article PMC5608352, “Formyl peptide derived lipopeptides disclose differences between the receptors in mouse and men and call the pepducin concept in question” (PLoS ONE, 2017).
# “Also recorded” adds a separate entry of the source. Residues, ends and D or L forms follow the SMILES beside them. *: point of attachment. Palmitoyl = CCCCCCCCCCCCCCCC(=O)*
# What was measured:
# mouse neutrophils [1] = molecular target: T1, mouse neutrophils (Mus musculus, UniProt O88536); experiment: Direct activation: superoxide release (isoluminol/HRP chemiluminescence), WT mouse bone marrow neutrophils; format: cell-based; conditions: for EC50: approximate value given in running text
# T1 sequence (O88536 1-351): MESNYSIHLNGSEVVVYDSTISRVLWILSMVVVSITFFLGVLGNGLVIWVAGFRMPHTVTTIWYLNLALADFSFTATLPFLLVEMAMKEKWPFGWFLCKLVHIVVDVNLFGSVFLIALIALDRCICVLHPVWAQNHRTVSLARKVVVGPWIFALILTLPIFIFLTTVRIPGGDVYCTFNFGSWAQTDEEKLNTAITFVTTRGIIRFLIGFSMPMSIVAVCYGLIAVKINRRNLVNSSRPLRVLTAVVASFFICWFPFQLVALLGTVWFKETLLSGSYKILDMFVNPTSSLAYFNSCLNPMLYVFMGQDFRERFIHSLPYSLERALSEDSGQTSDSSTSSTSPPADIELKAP
# Description: (§1) Mice (8–12 weeks of age) were killed by cervical dislocation, the femurs and tibias were removed and freed of soft tissue attachments, and the extreme distal tip of each extremity was cut off. KRG without Ca^2+ and Mg^2+ (KRG-) was forced through the bone by using a 1-mL syringe with a 27-gauge needle. After dispersing cell clumps and removing the debris, the bone marrow granulocytes were isolated according to an earlier described procedure with some modifications. Briefly, a cell suspension in 2 mL of KRG- was laid on top of a three-layer Percoll gradient (1.095, 1.085, and 1.070 g/mL). The density of each Percoll solution was verified using density marker beads. After centrifugation at 500 × g for 30 min at 4°C in a swinging bucket rotor, the lowest band (1.085/1.095 g/mL interface) was collected as the neutrophil fraction. After washing with KRG-, remaining red blood cells were eliminated by hypotonic lysis. After a final wash with KRG-, the cells were resuspended in KRG. The cell number and population of bone marrow cells were determined by flow cytometry based on forward scatter (size) and side scatter (density) localization.
# (§2) NADPH-oxidase activity was determined using an isoluminol and HRP-enhanced chemiluminescence (CL) system that allow for the determination of superoxide production. The CL activity was measured in a six-channel Biolumat LB 9505 apparatus (Berthold Co., Wildbad, Germany), using disposable 4-mL polypropylene tubes with 1 mL reaction mixture. The tubes contained 4 U HRP and 10 μg/mL isoluminol together with the cells that were equilibrated in the Biolumat for 5 min at 37°C, after which the stimulus solution (100 μL) was added. The light emission was recorded continuously over time and presented as superoxide production (in arbitrary light units, cpm x10^-6) as a function of time (min). The activity before stimulus addition was recorded as basal line and this activity was not changed in vehicle control samples. Since the FPR/Fpr-mediated superoxide production with respect to the onset and decline are very similar, the peak activities were used to compare the responses induced.
# Naïve bone marrow cells produce very low levels of superoxide upon stimulation and to increase this production the cells were routinely primed for one hour at RT followed by TNF-α (10 ng/mL, final concentration) priming for a period of 20 min at 37°C [10]. The cells were then kept on ice until further analysis, as described above. The reason for choosing the chemiluminescence based NADPH-oxidase assay system was that very few cells are required, allowing us to monitor and quantify receptor-mediated events with the limited number of mouse bone marrow neutrophils available.
# Data analysis was performed using Graph Pad Prism 7.0. The EC50/IC50 values were determined from experiments in which the activities were normalized to the response induced by maximal response or induced by agonist in the absence of inhibitor. The statistical analysis was performed on raw data using Student’s t-test when two groups were compared or one-way ANOVA with Dunnett’s multiple comparisons test in comparison to the control response when three groups were compared. * p ≤ 0.05 was considered significant.
# human neutrophils = experiment: Direct activation: superoxide release (isoluminol/HRP chemiluminescence), human neutrophils; format: cell-based; conditions: 10^5 cells, 37°C, isoluminol/HRP CL, pepducin 1 μM
# Description: (§3) Human peripheral blood neutrophils were isolated from buffy coats from healthy blood donors using dextran sedimentation and Ficoll-Paque gradient centrifugation as described. The remaining erythrocytes were disrupted by hypotonic lysis and the neutrophils were washed twice, suspended in KRG and, stored on melting ice until use. This isolation process permits cells to be purified with minimal granule mobilization. The buffy coats were obtained from the blood bank at Sahlgrenska University Hospital. Ethics approval was not needed since the buffy coats were provided anonymously and could not be traced back to a specific individual. This is in line with Swedish legislation section code 4§ 3p SFS 2003:460 (Lag om etikprövning av forskning som avser människor).
# (§4) NADPH-oxidase activity was determined using an isoluminol and HRP-enhanced chemiluminescence (CL) system that allow for the determination of superoxide production. The CL activity was measured in a six-channel Biolumat LB 9505 apparatus (Berthold Co., Wildbad, Germany), using disposable 4-mL polypropylene tubes with 1 mL reaction mixture. […] The light emission was recorded continuously over time and presented as superoxide production (in arbitrary light units, cpm x10^-6) as a function of time (min). The activity before stimulus addition was recorded as basal line and this activity was not changed in vehicle control samples. […]
# Fpr2 [2] = molecular target: T2, Fpr2 (Mus musculus, UniProt O88536); experiment: Receptor preference in mouse neutrophils (Fpr2 versus Fpr1); format: cell-based; conditions: conclusion from superoxide release, Fpr2^-/- cells, desensitization and inhibitors
# T2 construct: WT mouse neutrophils (5 x 10^4 cells) were pre-incubated without (solid line) or with mF2Pal16; endogenous in cells; host or cells: bone marrow neutrophils of C57BL/6 wild-type mice, TNF-alpha primed
# T2 sequence (O88536 1-351): T1 sequence (O88536 1-351)
# Description: (§5) C57BL/6 wild-type mice were purchased from Charles River Laboratories and Fpr2^−/− mice generated as described previously, were generously provided by Dr Ji Ming Wang, Frederick National Laboratory for Cancer Research, USA. Mice were kept under standard temperature and light conditions and fed laboratory chow and water ad libitum, at the Department of Rheumatology and Inflammation Research, University of Gothenburg. Sex matched WT and Fpr2^-/- animals (age 8–10 weeks) were used to isolated bone marrow derived neutrophils. The studies performed were approved by the Ethical Committee for Animal Experimentation, Göteborg, Sweden.
# (§6) Mice (8–12 weeks of age) were killed by cervical dislocation, the femurs and tibias were removed and freed of soft tissue attachments, and the extreme distal tip of each extremity was cut off. […] The cell number and population of bone marrow cells were determined by flow cytometry based on forward scatter (size) and side scatter (density) localization.
# (§7) NADPH-oxidase activity was determined using an isoluminol and HRP-enhanced chemiluminescence (CL) system that allow for the determination of superoxide production. The CL activity was measured in a six-channel Biolumat LB 9505 apparatus (Berthold Co., Wildbad, Germany), using disposable 4-mL polypropylene tubes with 1 mL reaction mixture. […]
# Fpr2^-/- neutrophils = experiment: Direct activation: superoxide release, Fpr2^-/- mouse neutrophils compared with WT; format: cell-based
# Description: as §5, §6, §7
# FPR2 [3] = molecular target: T3, FPR2 (Homo sapiens, UniProt P25090); experiment: Inhibition of WKYMVM-induced superoxide release, human neutrophils; format: cell-based; conditions: pepducin 1 μM pre-incubated (mF2Pal16, F1Pal16: 5 min); WKYMVM 50 nM
# T3 construct: Human peripheral blood neutrophils were isolated from buffy coats from healthy blood donors; endogenous in cells; host or cells: human peripheral blood neutrophils from buffy coats of healthy donors
# T3 sequence (P25090 1-351): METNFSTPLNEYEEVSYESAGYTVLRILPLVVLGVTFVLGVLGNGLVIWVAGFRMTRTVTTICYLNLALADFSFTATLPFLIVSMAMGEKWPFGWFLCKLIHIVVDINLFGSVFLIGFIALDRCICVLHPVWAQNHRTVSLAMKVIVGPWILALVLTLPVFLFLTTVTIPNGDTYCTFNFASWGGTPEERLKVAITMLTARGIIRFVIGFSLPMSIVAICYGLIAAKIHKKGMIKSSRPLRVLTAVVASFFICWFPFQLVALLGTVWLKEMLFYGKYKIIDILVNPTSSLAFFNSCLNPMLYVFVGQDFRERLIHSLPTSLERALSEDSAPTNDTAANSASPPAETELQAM
# Description: as §3
# as §2, with “Since the FPR/Fpr-mediated superoxide production with respect to the onset and decline are very similar, the peak activities were used to compare the responses induced.” left out
# (§8) Data analysis was performed using Graph Pad Prism 7.0. The EC50/IC50 values were determined from experiments in which the activities were normalized to the response induced by maximal response or induced by agonist in the absence of inhibitor. […]
# Human neutrophils (10^5 cells) were pre-incubated without (solid line) or with mF2Pal16 (1 μM) for 5 min before stimulation with A) the FPR2 specific agonist WKYMVM (50 nM, indicated by the arrow). […] The release of superoxide anions was measured continuously. […]
# mouse neutrophils [4] = molecular target: T1, mouse neutrophils; experiment: Receptor (cross-)desensitization, superoxide release, WT mouse neutrophils; format: cell-based; conditions: then pepducin 1 μM
# Description: NADPH-oxidase activity was determined using an isoluminol and HRP-enhanced chemiluminescence (CL) system that allow for the determination of superoxide production [29, 30]. The CL activity was measured in a six-channel Biolumat LB 9505 apparatus (Berthold Co., Wildbad, Germany), using disposable 4-mL polypropylene tubes with 1 mL reaction mixture. The tubes contained 4 U HRP and 10 μg/mL isoluminol together with the cells that were equilibrated in the Biolumat for 5 min at 37°C, after which the stimulus solution (100 μL) was added. The light emission was recorded continuously over time and presented as superoxide production (in arbitrary light units, cpm x10^-6) as a function of time (min). […] Since the FPR/Fpr-mediated superoxide production with respect to the onset and decline are very similar, the peak activities were used to compare the responses induced.
# The release of superoxide anions was continuously measured. […]
# FPR2 [5] = experiment: Receptor preference in human neutrophils (FPR2 versus FPR1); format: cell-based; conditions: conclusion from superoxide release experiments
# Description: as §3, §4
# FPR1 = experiment: Inhibition of fMLF-induced superoxide release, human neutrophils; format: cell-based; conditions: pepducin 1 μM; fMLF 50 nM
# Description: as §3, §4
# Fpr2 [6] = molecular target: T2, Fpr2; experiment: Inhibition of F2Pal16-induced superoxide release, WT mouse neutrophils; format: cell-based; conditions: Boc2 2 μM or peptidomimetic inhibitor 1 μM (five experiments), or mF2Pal16 500 nM against F2Pal16 500 nM (three experiments); 5 min pre-incubation
# Description: as §1, §4, §8
# Fpr2 [7] = molecular target: T2, Fpr2; parameters: method as in PMID 27614010; conditions: ref [12]; cited from earlier work
# Description: When looking at the FPRs in different species it is clear that the receptor family has a complex evolutionary history, as illustrated by the fact that the number of genes in the family vary markedly in mouse and man. […] As different mouse models constitute important tools for translational studies aiming to understa ... || Genetically modified mouse strains and mouse disease models provide excellent tools to study the function of neutrophil FPRs in vivo. Such studies have indicated Fprs (in particular Fpr2) as important regulators of the physiological processes leading to resolution of inflammation. However, a direct translation of mouse data to human studies is hampered due to the distant phylogenetic relationship between mouse and human receptors. In addition to the different number of Fpr genes in mice and humans and an incomplete understanding of the evolutionary relationship between human FPRs ...
molecule,measurement,setting,value
CCCCCCCCCCCCCCCC(=O)N[C@@H](CCCCN)C(=O)N[C@H](C(=O)N[C@@H](Cc1c[nH]cn1)C(=O)N[C@@H](CCCCN)C(=O)N[C@@H](CCC(N)=O)C(=O)NCC(=O)N[C@@H](CC(C)C)C(=O)N[C@H](C(=O)N[C@@H](CCCCN)C(=O)N[C@@H](CO)C(=O)N[C@@H](CO)C(=O)N[C@@H](CCCNC(=N)N)C(=O)N1CCC[C@H]1C(=O)N[C@@H](CC(C)C)C(=O)N[C@@H](CCCNC(=N)N)C(=O)N[C@H](C(=O)O)C(C)C)[C@@H](C)CC)[C@@H](C)CC [F1Pal16] (Palmitoyl-KIHKQGLIKSSRPLRV-OH),EC50,mouse neutrophils [1],~300 nM
CCCCCCCCCCCCCCCC(=O)N[C@@H](CCCCN)C(=O)N[C@H](C(=O)N[C@@H](Cc1c[nH]cn1)C(=O)N[C@@H](CCCCN)C(=O)N[C@@H](CCCCN)C(=O)NCC(=O)N[C@@H](CCSC)C(=O)N[C@H](C(=O)N[C@@H](CCCCN)C(=O)N[C@@H](CO)C(=O)N[C@@H](CO)C(=O)N[C@@H](CCCNC(=N)N)C(=O)N1CCC[C@H]1C(=O)N[C@@H](CC(C)C)C(=O)N[C@@H](CCCNC(=N)N)C(=O)N[C@H](C(=O)O)C(C)C)[C@@H](C)CC)[C@@H](C)CC [F2Pal16] (Palmitoyl-KIHKKGMIKSSRPLRV-OH),EC50,mouse neutrophils [1],~300 nM
CCCCCCCCCCCCCCCC(=O)N[C@@H](CCCCN)C(=O)N[C@H](C(=O)N[C@@H](Cc1c[nH]cn1)C(=O)N[C@@H](CCCNC(=N)N)C(=O)N[C@@H](CCC(N)=O)C(=O)NCC(=O)N[C@@H](CC(C)C)C(=O)N[C@H](C(=O)N[C@@H](CCCCN)C(=O)N[C@@H](CO)C(=O)N[C@@H](CO)C(=O)N[C@@H](CCCNC(=N)N)C(=O)N1CCC[C@H]1C(=O)N[C@@H](CC(C)C)C(=O)N[C@@H](CCCNC(=N)N)C(=O)N[C@H](C(=O)O)C(C)C)[C@@H](C)CC)[C@@H](C)CC [mF1Pal16] (Palmitoyl-KIHRQGLIKSSRPLRV-OH; N-terminus and C-terminus assumed),superoxide release / activation of human neutrophils,human neutrophils,Human neutrophils were not activated; also recorded: does not activate human neutrophils to produce superoxide
same,receptor preference / modulation of Fpr2 (versus Fpr1) in mouse neutrophils,Fpr2 [2],activates primarily Fpr2 in mouse neutrophils; also recorded: positively target the mouse Fpr2; also recorded: can act as an agonist for Fpr2
same,superoxide release in Fpr2^-/- neutrophils compared with WT,"Fpr2^-/- neutrophils; pepducin 1 μM, % of peak fMIFL (10 nM) response, p ≤ 0.05 significant",not abolished but significantly reduced
same,"effect on WKYMVM response, human neutrophils",FPR2 [3],inhibited the response
same,superoxide release / activation of WT mouse neutrophils,"mouse neutrophils [1]; WT mouse (C57BL/6) bone marrow neutrophils, TNF-α primed, 5 x 10^4 cells, 37°C, isoluminol/HRP CL, peak activity, pepducin 1 μM in figures",triggered activation of the NADPH-oxidase in mouse neutrophils
same,"relative potency, activation of WT mouse neutrophils","mouse neutrophils [1]; compared in words with derivatives or other pepducins, 1 μM in Figs 3, 6C, % of fMIFL (10 nM) peak, three independent experiments",much lower EC50 value as compared to that of F1Pal16
same,response to second stimulation after PSMα2,mouse neutrophils [4]; first PSMα2 50 nM,non-responsive to a second stimulation
same,response to second stimulation after fMIFL,mouse neutrophils [4]; first fMIFL 10 nM,not fMIFL-stimulated cells were non-responsive
same,receptor preference / modulation of FPR2 (versus FPR1) in human neutrophils,FPR2 [5],very similar activities but with somewhat different potency; also recorded: preference for FPR2 over FPR1; also recorded: inhibits the FPR2 activity in human neutrophils; also recorded: negatively target human FPR2
same,"effect on fMLF response, human neutrophils",FPR1,did not affect the response
Lau-(Lys-βNSpe)6-NH2,"effect of inhibitor on F2Pal16 response, WT mouse neutrophils",Fpr2 [6],significantly reduced
WKYMVM [FPR2 specific agonist],activity at mouse Fprs (earlier work),Fpr2 [7],low affinity for their mouse orthologous
fMIFL [reference compound],fMIFL superoxide response in Fpr2^-/- versus WT neutrophils,"Fpr2^-/- neutrophils; fMIFL 10 nM, reference response",comparable in WT and Fpr2 deficient neutrophils
same,activity at mouse Fprs (earlier work),Fpr2 [7],potently and selectively activate Fpr1
fMLF,activity at mouse Fprs (earlier work),Fpr2 [7],low affinity for their mouse orthologous
